Measured values: patent publication US20040116516A1 (Boehringer Ingelheim Pharma GmbH & Co. KG, priority 2002, published 2004)

Test system: arachidonic acid induced mouse ear inflammation
Assay: arachidonic acid induced mouse ear inflammation test (MPO as index of neutrophil accumulation)
Type: in vivo, mice
Conditions: for maximum inhibitory effect: group5; for effect on arachidonic acid induced ear inflammation in mice (in words): single compounds, oral administration
Protocol: Female albino mice (Han:NMRI) obtained from Interfauna and weighing about 20-25 g were used. The animals were provided with standardised pellet diet (Altromin 8013) and had tap water freely available. The animals were accommodated in a climatized room with a 12 hours light/dark cycle and kept in groups.
The compound of formula IA and meloxicam were administered orally (0.2 ml/10 g bw) 30 min. before arachidonic acid challenge. Meloxicam was given twice: one dose 16 hours and the second dose 30 minutes before challenge. For every day there was a concurrent control. Then number of animals per group was 7. The study compounds were suspended in 1% methylcellulose (Tylose MH 300, Fluka, CH-9470 Buchs). The experiment was run in five groups. Every group contained one control, two doses of meloxicam, two doses of (IA), and one dose of the combination of the two compounds.
Mice were lightly anesthetized by ether and 1 mg arachidonic acid (10 μl) was applied to each side of the left ear. […] The animals were sacrificed by ether 6 hours later, and a biopsy (diameter 8 mm) was punched out from both ears to assess an increase of neutrophils in the left ear compared with the right ear. Tissue samples were homogenized in 1 ml 0.5% HTAB (Hexadecyl-trimethyl-ammonium-bromide; Sigma H-5882; solved in 0.05 M phosphate buffer, pH 6.0) using a tissue homogenizer (IKA-Ultraturrax T5; Janke & Kunkel, Staufen/Breisgau) at 30000 RPM for 15 seconds. After centrifugation (16000 G, 5 min) the supernatants were frozen until processing for myeloperoxidase (MPO). Determination in the supernatants for MPO, a neutrophil marker enzyme, served as a quantitative index for the neutrophil accumulation.
MPO was determined spectrophotometrically at 450 nm using a micro plate version of the method of Bradley (1982) and a micro plate reader (Vmax; Molecular Devices, Palo Alto) suitable for kinetic measurements and expressed as mean optical density per minute.
For each individual the response myeloperoxidase activity (MPO) in optical density per minute (oD/min) was measured.
For the comparisons the nonparametric statistical methods Kruskal-Wallis-One-Way-ANOVA and the Wilcoxon-Two-Sample-Test (2 sided) have been used. For the first and last comparisons also Bonferroni-Holm adjusted p-values have been calculated.

## CCOC(=O)N=C(N)c1ccc(OCc2cccc(COc3ccc(C(C)(C)c4ccc(O)cc4)cc3)c2)cc1
supra-maximum doses 0.8 and 1.6 mg/kg p.o.
  maximum inhibitory effect: 66%
  effect on arachidonic acid induced ear inflammation in mice (in words): inhibited arachidonic acid induced ear inflammation in mice

## Cc1cnc(NC(=O)C2=C(O)c3ccccc3S(=O)(=O)N2C)s1 [Meloxicam, meloxicam]
supra-maximum doses 16 and 32 mg/kg p.o.
  maximum inhibitory effect: 37%
  effect on arachidonic acid induced ear inflammation in mice (in words): inhibited arachidonic acid induced ear inflammation in mice
